Literature values, collected in patent US11439578B2, “Agent for dyeing hair, containing at least one organic silicon compound, a coloring compound and a film-forming, hydrophilic polymer” (Henkel AG & Co. KGaA, priority 2018, dated 2022).

Conditions: about 25° C.

Structure (SMILES) | solubility in water | solubility in water (in words)
CCN(Cc1cccc(S(=O)(=O)[O-])c1)c1ccc(C(=C2C=CC(=[N+](CC)Cc3cccc(S(=O)(=O)[O-])c3)C=C2)c2ccccc2S(=O)(=O)[O-])cc1.[Na+].[Na+] [Acid Blue 9] | more than 20 % by weight | –
O=S(=O)([O-])c1ccc(N=Nc2c(O)ccc3ccccc23)cc1.[Na+] [Acid Orange 7, sodium salt of 4-[(2-hydroxy-1-naphthyl)azo]benzene sulphonate] | more than 7 g/L | –
Nc1cc(S(=O)(=O)[O-])cc2cc(S(=O)(=O)[O-])c(N=Nc3ccccc3)c(O)c12.[Na+].[Na+] [Acid Red 33, disodium salt of 5-amino-4-hydroxy-3-(phenylazo)-naphthalene-2,7-disulphonate] | about 2.5 g/L | –
O=C([O-])c1c(Cl)c(Cl)c(Cl)c(Cl)c1-c1c2c(Br)cc(=O)c(Br)c-2oc2c(Br)c(O)cc(Br)c12.O=C([O-])c1c(Cl)c(Cl)c(Cl)c(Cl)c1-c1c2c(Br)cc(=O)c(Br)c-2oc2c(Br)c(O)cc(Br)c12.[Na+].[Na+] [Acid Red 92, disodium salt of 3,4,5,6-tetrachloro-2-(1,4,5,8-tetrabromo-6-hydroxy-3-oxoxanthen-9-yl)benzoic acid] | greater than 10 g/L | –
O=C([O-])C1=NN(c2ccc(S(=O)(=O)[O-])cc2)C(=O)C1N=Nc1ccc(S(=O)(=O)[O-])cc1.[Na+].[Na+].[Na+] (centres unmarked) [Acid Yellow 23, trisodium salt of 4,5-dihydro-5-oxo-1-(4-sulfophenyl)-4-((4-sulfophenyl)azo)-1H-pyrazole-3-carboxylic acid] | – | highly soluble in water
